In ChEMBL document CHEMBL4414576, “Recent advancements in mechanistic studies and structure activity relationship of FoF1 ATP synthase inhibitor as antimicrobial agent” (Eur J Med Chem, 2019):

Test system: Mycobacterium tuberculosis variant bovis
Test: Antimicrobial activity against Mycobacterium bovis after 1 to 5 days by two-fold dilution
Format: functional, organism-based

SMILES: FC(F)(F)Oc1cccc(CNCCNC2C3CC4CC(C3)C2C4)c1 (stereo unspecified)
- IC50: 1250 nM
